Molecules are shown by their SMILES. Bridge positions count the residues as written; N and C are the ends. Square brackets hold non-standard residues; d marks the D form. Peptide text beside a SMILES is read from it. ξ: configuration not given here. S5 = C=CCCC[C@](C)(N)C(=O)O; ξIle = CC[C@H](C)C(N)C(=O)O

These results are taken from ChEMBL document CHEMBL5236564, “An overview of the development of EED inhibitors to disable the PRC2 function” (RSC Med Chem, 2022).

Data set [1] addresses T1, Polycomb protein EED (Homo sapiens, UniProt O75530). The experiment in a line: Binding affinity to his tagged EED (1 to 441 residues) (unknown origin) incubated for 20 mins in presence of biotinylated H3K27me3 peptide (19 to 33 residues) by alphascreen competitive binding assay.
Target sequence in this assay (O75530 whole entry, the tested form may be a part): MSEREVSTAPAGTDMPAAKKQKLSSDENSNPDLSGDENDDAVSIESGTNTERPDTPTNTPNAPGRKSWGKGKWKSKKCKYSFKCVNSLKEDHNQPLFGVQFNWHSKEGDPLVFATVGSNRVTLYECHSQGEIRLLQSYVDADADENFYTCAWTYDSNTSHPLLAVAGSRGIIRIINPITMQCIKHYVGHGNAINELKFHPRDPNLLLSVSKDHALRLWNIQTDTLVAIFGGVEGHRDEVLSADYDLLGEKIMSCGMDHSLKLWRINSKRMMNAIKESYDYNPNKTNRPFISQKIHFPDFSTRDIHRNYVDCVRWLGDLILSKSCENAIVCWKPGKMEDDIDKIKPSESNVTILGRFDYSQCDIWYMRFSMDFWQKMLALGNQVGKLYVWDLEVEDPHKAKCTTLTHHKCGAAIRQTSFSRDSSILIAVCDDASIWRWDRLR
The target of data set [2] is T1, Polycomb protein EED. The experiment in a line: Stabilization of EED (unknown origin) assessed as change in melting temperature by thermal shift assay. The note with it: tested as the 2H-labelled form.
Target sequence in this assay (O75530 2-441 limits assumed): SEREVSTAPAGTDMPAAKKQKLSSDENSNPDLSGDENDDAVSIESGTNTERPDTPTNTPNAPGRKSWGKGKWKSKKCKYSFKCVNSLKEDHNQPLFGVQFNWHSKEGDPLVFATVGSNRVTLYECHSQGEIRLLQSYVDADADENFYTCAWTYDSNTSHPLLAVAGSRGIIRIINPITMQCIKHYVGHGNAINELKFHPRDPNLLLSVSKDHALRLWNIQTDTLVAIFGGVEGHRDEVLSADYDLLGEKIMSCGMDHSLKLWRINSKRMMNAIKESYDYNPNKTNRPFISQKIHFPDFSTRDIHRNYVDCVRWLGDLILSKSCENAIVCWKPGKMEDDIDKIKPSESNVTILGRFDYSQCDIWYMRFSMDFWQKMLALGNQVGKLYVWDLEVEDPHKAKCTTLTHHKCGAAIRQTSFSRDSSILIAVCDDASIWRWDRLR
The nature of data set [3]: Inhibition of EED/EZH2 (unknown origin) interaction by fluorescence polarization assay. Also on record: species or system Homo sapiens. On the technique in general: In fluorescence polarisation assays a small probe gives low polarisation when free and higher when bound to something large.
Data set [4] is described as follows: Oral bioavailability in mouse. The note with it: in vivo. It is filed as ADME, organism-based.
Data set [5] relates to KARPAS-422. The experiment in a line: Synergistic cell viability against human KARPAS-422 cells by measuring combination index score at 0.3 to 3 uM measured after 7 days in presence of GSK126. The class given is functional. The conditions noted are these: dose 0.3-3 µM; time 7 day.
For data set [6], the target named is T1, Polycomb protein EED. The experiment in a line: Binding affinity to C-terminal histidine tagged EED (unknown origin) expressed in Escherichia coli BL21(DE3) incubated for 15 mins by fluorescence polarization analysis.
Target sequence in this assay (O75530 whole entry, the tested form may be a part): as the sequence (O75530 whole entry, the tested form may be a part) above
A short description of data set [7]: Synergistic cell viability against human MLL-AF9 cells by measuring combination index score at 0.3 to 3 uM measured after 7 days in presence of GSK126. The class given is functional. The conditions noted are these: dose 0.3-3 µM; time 7 day.
Data set [8] in a line: Inhibition of human N- terminal 6 his sumo-tagged EED (81 to 441 residues)/EZH2(39 to 63 residues) (unknown origin) interaction expressed in Escherichia coli BL21(DE3) incubated for 2 hrs by fluorescence polarization based competitive assay.
Data set [9] has as its system KARPAS-422. The experiment in a line: Synergistic growth inhibition against human KARPAS-422 cells assessed as reduction in cell proliferation by measuring synergistic score at upto 10 uM measured after 6 days in presence of EI1. The class given is functional. The note with it: time 6 day.
The nature of data set [10]: Inhibition of PRC2 (unknown origin) using H3K27me0 as peptide substrate by LC-MS based analysis. Also on record: species or system Homo sapiens.
The target of data set [11] is EZH2/SUZ12/EED complex (Homo sapiens, UniProt O75530+Q15022+Q15910). The experiment in a line: Binding affinity to PRC2 complex of EZH2-EED-SUZ12 (unknown origin) assessed as dissociation constant by isothermal titration calorimetry method. The class given is protein-complex assay. Background: In ITC the heat of successive injections is recorded.
Sequence of EZH2/SUZ12/EED complex (Q15910 whole entry): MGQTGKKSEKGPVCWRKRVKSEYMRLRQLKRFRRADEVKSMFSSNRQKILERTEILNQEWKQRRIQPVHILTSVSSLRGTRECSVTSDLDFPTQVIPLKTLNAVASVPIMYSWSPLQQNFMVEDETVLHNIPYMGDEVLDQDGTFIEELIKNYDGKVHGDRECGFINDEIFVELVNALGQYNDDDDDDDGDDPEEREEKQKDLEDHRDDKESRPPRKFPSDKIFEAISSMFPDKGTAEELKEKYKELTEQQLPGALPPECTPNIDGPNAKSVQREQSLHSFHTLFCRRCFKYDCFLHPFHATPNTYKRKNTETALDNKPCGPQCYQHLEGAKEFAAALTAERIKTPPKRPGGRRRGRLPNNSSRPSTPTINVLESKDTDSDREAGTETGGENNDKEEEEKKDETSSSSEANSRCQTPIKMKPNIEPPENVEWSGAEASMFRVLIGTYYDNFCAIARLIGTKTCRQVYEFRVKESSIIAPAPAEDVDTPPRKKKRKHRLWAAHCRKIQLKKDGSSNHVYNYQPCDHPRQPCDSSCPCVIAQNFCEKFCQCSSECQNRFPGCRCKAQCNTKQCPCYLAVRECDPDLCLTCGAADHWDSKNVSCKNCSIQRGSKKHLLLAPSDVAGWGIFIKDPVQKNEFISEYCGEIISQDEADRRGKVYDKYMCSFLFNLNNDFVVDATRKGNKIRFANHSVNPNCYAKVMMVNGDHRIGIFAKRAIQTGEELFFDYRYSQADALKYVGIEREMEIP
Sequence of EZH2/SUZ12/EED complex (O75530 whole entry): as the sequence (O75530 whole entry, the tested form may be a part) above
Sequence of EZH2/SUZ12/EED complex (Q15022 whole entry): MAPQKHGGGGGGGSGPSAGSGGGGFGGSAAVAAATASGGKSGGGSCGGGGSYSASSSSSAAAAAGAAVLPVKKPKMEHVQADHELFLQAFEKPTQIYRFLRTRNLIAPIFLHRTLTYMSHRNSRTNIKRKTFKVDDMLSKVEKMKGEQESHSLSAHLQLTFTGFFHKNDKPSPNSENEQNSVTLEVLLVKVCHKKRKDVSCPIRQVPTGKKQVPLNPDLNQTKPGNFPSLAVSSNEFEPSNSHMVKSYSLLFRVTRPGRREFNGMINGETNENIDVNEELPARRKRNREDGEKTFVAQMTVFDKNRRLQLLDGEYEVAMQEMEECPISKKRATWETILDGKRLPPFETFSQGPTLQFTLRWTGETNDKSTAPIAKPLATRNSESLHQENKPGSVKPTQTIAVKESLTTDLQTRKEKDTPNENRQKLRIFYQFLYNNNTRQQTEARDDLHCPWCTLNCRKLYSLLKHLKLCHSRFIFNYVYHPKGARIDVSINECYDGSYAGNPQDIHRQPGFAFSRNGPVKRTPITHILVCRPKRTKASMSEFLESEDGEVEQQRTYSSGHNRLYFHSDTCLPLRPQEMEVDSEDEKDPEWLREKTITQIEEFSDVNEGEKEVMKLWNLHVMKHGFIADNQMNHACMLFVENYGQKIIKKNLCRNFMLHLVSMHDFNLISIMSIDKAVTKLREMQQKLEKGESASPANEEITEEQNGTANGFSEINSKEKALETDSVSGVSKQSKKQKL
Data set [12] concerns KARPAS-422. The experiment in a line: Synergistic growth inhibition against human KARPAS-422 cells assessed as reduction in H3K27me3 level by measuring synergistic score upto 10 uM measured after 4 days in presence of EI1. It is filed as functional. The conditions noted are these: time 4 day.
For data set [13], the system named is KARPAS-422. The experiment in a line: Antitumor activity against human KARPAS-422 cells xenografted in mouse at 40 mg/kg via oral gavage and mesured after 32 days by caliper method relative to control. The class given is functional. The conditions noted are these: KARPAS-422, 768 h, time 32 day, read-out: TGI. In general terms: In xenograft studies the graft and the host belong to different species.

Data set [14] has as its target EZH2/SUZ12/EED complex (Homo sapiens) (UniProt Q15910+O75530+Q15022).
Description: Stabilization of PRC2 complex of EZH2-EED-SUZ12 (unknown origin) assessed as thermal stability by measuring increase in melting temperature by thermal shift assay
Data set [15] deals with Pfeiffer. The experiment in a line: Antitumor activity against human Pfeiffer cells xenografted in mouse assessed as tumor growth inhibition at 100 mg/kg, po administered twice daily for 36 days relative to control. It is filed as functional. The conditions noted are these: 864 h, time 36 day, read-out: TGI.
Data set [16] deals with KARPAS-422. The experiment in a line: Antitumor activity against human KARPAS-422 cells xenografted in mouse assessed as tumor growth inhibition at 100 mg/kg, po administered twice daily for 36 days relative to control. The note with it: KARPAS-422, 864 h, time 36 day, read-out: TGI. It is filed as functional.
Data set [17] has as its target T1, Polycomb protein EED. The experiment in a line: Displacement of H3K27me3 from EED (unknown origin) by competitive binding assay.
Target sequence in this assay (O75530 whole entry, the tested form may be a part): as the sequence (O75530 whole entry, the tested form may be a part) above

Sequence of EZH2/SUZ12/EED complex (Homo sapiens) (O75530 2-441 partner limits assumed): as the sequence (O75530 2-441 limits assumed) above
Sequence of EZH2/SUZ12/EED complex (Homo sapiens) (Q15022 whole entry partner): as the sequence (Q15022 whole entry) above
Sequence of EZH2/SUZ12/EED complex (Homo sapiens) (Q15910 whole entry): as the sequence (Q15910 whole entry) above

As to `Cc1cc(C)n(-c2cc(N3CCCc4ccccc43)ccc2[N+](=O)[O-])n1`, the half-inhibitory concentration (IC50) in [1] was found to be 8.76 µM. For the molecule `Cc1ncccc1-c1cnc(NCc2c(F)ccc3c2CCO3)[nH]c1=O`, the ΔTm in data set [2] was determined as 6 °C. In [3], `CCCCC1C(=O)N(c2ccccc2)N(c2ccc(O)cc2)C1=O` (stereo not given) [OXYPHENBUTAZONE ANHYDROUS] displayed an IC50 of 229 µM. `CC[C@@H](C)n1cc(C)c2c(C(=O)NCc3c(C)cc(C)[nH]c3=O)cc(-c3ccc(N4CCNCC4)nc3)cc21` displayed a bioavailability in data set [4] of 0.2%. In turn, `CN1CCc2cccc3c2[C@H]1Cc1ccc(O)c(O)c1-3` [APOMORPHINE] had a concentration for half-maximal inhibition (IC50) in data set [3] of 15.5 µM. Same read-out and setting: with `COC(=O)C1=C(C)NC(C)=C(C(=O)OC)C1c1ccccc1[N+](=O)[O-]` [NIFEDIPINE] the figure was 343 µM. As to `CC[C@H](C)C1NC(=O)[C@H](CCCCN)NC(=O)[C@@](C)(NC(=O)[C@H](CCCNC(=N)N)NC(=O)[C@H](CC(N)=O)NC(=O)[C@H](CO)NC(=O)[C@H](CO)NC(=O)[C@H](Cc2ccccc2)NC(C)=O)CCC/C=C/CCC[C@@](C)(C(=O)N[C@@H](CCCNC(=N)N)C(=O)N[C@H](C(=O)N[C@@H](CCC(N)=O)C(=O)N[C@H](C(=O)N[C@@H](CC(C)C)C(=O)N[C@@H](CC(N)=O)C(=O)N[C@@H](CCC(N)=O)C(=O)N[C@@H](CCC(=O)O)C(=O)N[C@@H](Cc2c[nH]c3ccccc23)C(=O)N[C@@H](CCCCN)C(=O)N[C@@H](CCC(N)=O)C(=O)N[C@@H](CCCNC(=N)N)C(=O)N[C@@H](CCCNC(=N)N)C(=O)N[C@H](C(=O)N[C@@H](CCC(N)=O)C(=O)N2CCC[C@H]2C(=O)N[C@H](C(=O)O)C(C)C)[C@@H](C)CC)[C@@H](C)CC)[C@@H](C)O)NC(=O)[C@H](CC(C)C)NC1=O` (stereo not given in full) (Ac-FSSNR[S5]K[ξIle]L[S5]RTQILNQEWKQRRIQPV-OH; staple (E) 6-10), the results for the Activity in data set [5] and in data set [7] were 0.74 and 0.11, respectively. The same molecule showed a dissociation constant (Kd) in [6] of 0.00032 µM. Regarding `Cc1sc(NC(=O)CCCCC(=O)Nc2sc(C)c(C)c2C(N)=O)c(C(N)=O)c1C`, the IC50 in [8] came out at 54.9 µM.

With `CS(=O)(=O)c1ccc(-c2cnc(NCc3ccco3)n3cnnc23)cc1`, the values for the Activity in data set [9] and in data set [12] were 1.67 and 2.17, respectively. For the same molecule, 0.0234 µM corresponded to half-maximal inhibition in data set [10] (IC50). For the same molecule, the dissociation constant (Kd) in data set [11] came out at 0.082 µM. In data set [13], the inhibition in vivo at 40 mg/kg turned out to be 100%. In addition, the ΔTm in [14] was more than 8 °C. In data set [8], `Cc1ccc(C(C2=C(O)CC(C)(C)CC2=O)C2C(=O)CC(C)(C)CC2=O)s1` (stereo not given) showed a half-maximal inhibitory concentration (IC50) of 63.9 µM.

Take `[2H]C([2H])(Nc1ncc(-c2cccnc2C)c(=O)[nH]1)c1c(F)ccc2c1CCO2`: the inhibition in vivo at 100 mg/kg in data set [15] was 96%; in data set [16], 85%. This molecule showed a half-maximal inhibitory concentration (IC50) in data set [17] of 0.0045 µM.

One may read the IC50 as the concentration needed to halve the response being measured. What is called ΔTm is the change in melting temperature against a reference sample. For orientation: bioavailability means the share of a dose that reaches the circulation, judged against a reference dose that is usually intravenous. High values mean good availability, low ones poor availability. The term Kd denotes a measure of binding affinity in units of concentration.
